Experimental findings from the OligoGym collection are described below.

Several values for one entry are separate records, joined by “and”; a condition that tells them apart may be missing. Identical values can stand only once. HELM strings list units from the 5' end as sugar, base in round brackets, then linkage (d deoxyribose, r ribose, m 2'-O-methyl, p phosphodiester). Methylation of C is not given here. [moe] = 2'-O-(2-methoxyethyl) (MOE); [cEt] = constrained ethyl (cEt); [sp] = phosphorothioate linkage

In this data set the target is HBV. Particulars: ASO.

Regarding “RNA1{[moe](A)[sp].[moe](G)[sp].[moe](A)[sp].[moe](A)[sp].d(G)[sp].d(T)[sp].d(C)[sp].d(C)[sp].d(A)[sp].d(C)[sp].d(C)[sp].d(A)[sp].d(C)[sp].[moe](G)[sp].[moe](A)[sp].[moe](G)[sp].[moe](T)}$$$$V2.0”, the target mRNA inhibition (HepG2, 0.07 µM) was 32% and 20%.

Regarding “RNA1{[moe](T)[sp].[cEt](A)[sp].d(T)[sp].d(G)[sp].d(C)[sp].d(C)[sp].d(T)[sp].d(A)[sp].d(C)[sp].d(A)[sp].d(G)[sp].d(C)[sp].[cEt](C)[sp].[moe](T)[sp].[cEt](C)[sp].[moe](C)}$$$$V2.0”, the target mRNA inhibition (HepG2, 0.07 µM) is 54% and 51%.

For “RNA1{[moe](A)[sp].[moe](A)[sp].[moe](G)[sp].[moe](C)[sp].d(G)[sp].d(A)[sp].d(A)[sp].d(G)[sp].d(T)[sp].d(G)[sp].d(C)[sp].d(A)[sp].d(C)[sp].[moe](A)[sp].[moe](C)[sp].[moe](G)[sp].[moe](G)}$$$$V2.0”, the target mRNA inhibition (HepG2, 0.0092593 µM) amounted to 5%; the target mRNA inhibition (HepG2, 0.0277778 µM) worked out at 27%; the target mRNA inhibition (HepG2, 0.07 µM) was 78% and 64%; the target mRNA inhibition (HepG2, 0.0833333 µM) was found to be 69%; the target mRNA inhibition (HepG2, 0.25 µM) worked out at 81%.

As for “RNA1{[moe](G)[sp].[moe](A)[sp].[moe](G)[sp].[cEt](G)[sp].d(T)[sp].d(G)[sp].d(A)[sp].d(A)[sp].d(G)[sp].d(C)[sp].d(G)[sp].d(A)[sp].d(A)[sp].[cEt](G)[sp].[moe](T)[sp].[moe](G)[sp].[moe](C)}$$$$V2.0”, the target mRNA inhibition runs as follows: (HepG2, 0.009375 µM) 22%; (HepG2, 0.01875 µM) 25%; (HepG2, 0.0375 µM) 50%; (HepG2, 0.075 µM) 69%; (HepG2, 0.15 µM) 76%; (HepG2, 0.3 µM) 88%.

For the substance “RNA1{[moe](T)[sp].[moe](A)[sp].[moe](T)[sp].d(G)[sp].d(C)[sp].d(C)[sp].d(T)[sp].d(A)[sp].d(C)[sp].d(A)[sp].d(G)[sp].d(C)[sp].[moe](C)[sp].[moe](T)[sp].[moe](C)[sp].[moe](C)}$$$$V2.0”, the target mRNA inhibition (HepG2, 0.07 µM) was 49% and 46%.

As to “RNA1{[moe](A)[sp].[moe](G)[sp].[moe](A)[sp].[moe](A)[sp].[moe](G)[sp].[moe](T)[sp].d(C)[sp].d(C)[sp].d(A)[sp].d(C)[sp].d(C)[sp].d(A)[sp].d(C)[sp].d(G)[sp].d(A)[sp].[moe](G)[sp].[moe](T)}$$$$V2.0”, the target mRNA inhibition (HepG2, 0.07 µM) was 39% and 30%.

Regarding “RNA1{[moe](G)[sp].[cEt](A)[sp].[cEt](G)[sp].d(A)[sp].d(G)[sp].d(A)[sp].d(A)[sp].d(G)[sp].d(T)[sp].d(C)[sp].d(C)[sp].d(A)[sp].d(C)[sp].[cEt](C)[sp].[cEt](A)[sp].[moe](C)}$$$$V2.0”, the target mRNA inhibition (HepG2, 0.07 µM) is 65% and 63%.

For “RNA1{[moe](G)[sp].[moe](A)[sp].[moe](T)[sp].d(G)[sp].d(A)[sp].d(G)[sp].d(G)[sp].d(C)[sp].d(A)[sp].d(T)[sp].d(A)[sp].d(G)[sp].d(C)[sp].[cEt](A)[sp].[cEt](G)[sp].[cEt](C)}$$$$V2.0”, the target mRNA inhibition (HepG2, 0.07 µM) is 56% and 66%.

In the case of “RNA1{[moe](A)[sp].[moe](C)[sp].[moe](C)[sp].d(A)[sp].d(C)[sp].d(T)[sp].d(G)[sp].d(A)[sp].d(A)[sp].d(C)[sp].d(A)[sp].d(A)[sp].[moe](A)[sp].[moe](T)[sp].[moe](G)[sp].[moe](G)[sp].[moe](C)}$$$$V2.0”, the target mRNA inhibition (HepG2, 0.07 µM) was found to be 78%.

Consider “RNA1{[moe](G)[sp].[cEt](A)[sp].d(T)[sp].d(G)[sp].d(A)[sp].d(G)[sp].d(G)[sp].d(C)[sp].d(A)[sp].d(T)[sp].d(A)[sp].d(G)[sp].[cEt](C)[sp].[moe](A)[sp].[cEt](G)[sp].[moe](C)}$$$$V2.0”, for which, under “HepG2, 0.07 µM”, the target mRNA inhibition is 70% and 66%.

Take “RNA1{[moe](A)[sp].[cEt](G)[sp].[cEt](C)[sp].d(T)[sp].d(T)[sp].d(G)[sp].d(G)[sp].d(A)[sp].d(G)[sp].d(G)[sp].d(C)[sp].d(T)[sp].d(T)[sp].[cEt](G)[sp].[cEt](A)[sp].[moe](A)}$$$$V2.0”: the target mRNA inhibition (HepG2, 0.07 µM) is 5% and 0%.

With “RNA1{[moe](A)[sp].[moe](A)[sp].[moe](G)[sp].[cEt](C)[sp].[cEt](G)[sp].d(A)[sp].d(A)[sp].d(G)[sp].d(T)[sp].d(G)[sp].d(C)[sp].d(A)[sp].[cEt](C)[sp].[cEt](A)[sp].[moe](C)[sp].[moe](G)[sp].[moe](G)}$$$$V2.0”, the target mRNA inhibition was 23% (HepG2, 0.009375 µM); 19% (HepG2, 0.01875 µM); 39% (HepG2, 0.0375 µM); 49% (HepG2, 0.075 µM); 66% (HepG2, 0.15 µM); 75% (HepG2, 0.3 µM).

As to “RNA1{[moe](G)[sp].[cEt](A)[sp].d(A)[sp].d(C)[sp].d(C)[sp].d(A)[sp].d(C)[sp].d(T)[sp].d(G)[sp].d(A)[sp].d(A)[sp].d(C)[sp].[cEt](A)[sp].[moe](A)[sp].[cEt](A)[sp].[moe](T)}$$$$V2.0”, the target mRNA inhibition (HepG2, 0.07 µM) was 49% and 43%.

Take “RNA1{[moe](G)[sp].[cEt](C)[sp].d(A)[sp].d(T)[sp].d(A)[sp].d(G)[sp].d(C)[sp].d(A)[sp].d(G)[sp].d(C)[sp].d(A)[sp].d(G)[sp].[cEt](G)[sp].[moe](A)[sp].[cEt](T)[sp].[moe](G)}$$$$V2.0”: the target mRNA inhibition (HepG2, 0.07 µM) is 76% and 78%.

As to “RNA1{[moe](A)[sp].[cEt](A)[sp].[cEt](T)[sp].d(T)[sp].d(T)[sp].d(A)[sp].d(T)[sp].d(G)[sp].d(C)[sp].d(C)[sp].d(T)[sp].d(A)[sp].d(C)[sp].[cEt](A)[sp].[cEt](G)[sp].[moe](C)}$$$$V2.0”, under “HepG2, 0.07 µM”, the target mRNA inhibition was 70% and 73%.

The substance “RNA1{[moe](G)[sp].[moe](C)[sp].[moe](A)[sp].[moe](G)[sp].d(A)[sp].d(G)[sp].d(G)[sp].d(T)[sp].d(G)[sp].d(A)[sp].d(A)[sp].d(G)[sp].d(C)[sp].[moe](G)[sp].[moe](A)[sp].[moe](A)[sp].[moe](G)}$$$$V2.0” came in with a target mRNA inhibition (HepG2, 0.07 µM) of 52%.

In the case of “RNA1{[moe](G)[sp].[moe](C)[sp].[moe](A)[sp].d(G)[sp].d(A)[sp].d(G)[sp].d(G)[sp].d(T)[sp].d(G)[sp].d(A)[sp].d(A)[sp].d(G)[sp].[moe](C)[sp].[moe](G)[sp].[moe](A)[sp].[moe](A)}$$$$V2.0”, the target mRNA inhibition (HepG2, 0.07 µM) is 58% and 64%.

“RNA1{[moe](T)[sp].[moe](G)[sp].[moe](G)[sp].d(A)[sp].d(G)[sp].d(C)[sp].d(C)[sp].d(A)[sp].d(C)[sp].d(C)[sp].d(A)[sp].d(G)[sp].[moe](C)[sp].[moe](A)[sp].[moe](G)[sp].[moe](G)}$$$$V2.0”: the target mRNA inhibition (HepG2, 0.07 µM) was 58% and 57%.

For the substance “RNA1{[moe](A)[sp].[moe](G)[sp].[moe](G)[sp].[moe](A)[sp].[moe](G)[sp].d(T)[sp].d(T)[sp].d(C)[sp].d(C)[sp].d(G)[sp].d(C)[sp].d(A)[sp].d(G)[sp].d(T)[sp].[moe](A)[sp].[moe](T)}$$$$V2.0”, under “HepG2, 0.07 µM”, the target mRNA inhibition was 62% and 48%.

Take “RNA1{[moe](G)[sp].[moe](A)[sp].[moe](A)[sp].[moe](C)[sp].[moe](T)[sp].[moe](G)[sp].d(G)[sp].d(A)[sp].d(G)[sp].d(C)[sp].d(C)[sp].d(A)[sp].d(C)[sp].d(C)[sp].d(A)[sp].[moe](G)[sp].[moe](C)}$$$$V2.0”: the target mRNA inhibition (HepG2, 0.07 µM) was 55% and 48%.

Regarding “RNA1{[moe](T)[sp].[moe](C)[sp].[moe](C)[sp].[moe](G)[sp].d(C)[sp].d(A)[sp].d(G)[sp].d(T)[sp].d(A)[sp].d(T)[sp].d(G)[sp].d(G)[sp].d(A)[sp].[moe](T)[sp].[moe](C)[sp].[moe](G)[sp].[moe](G)}$$$$V2.0”, the target mRNA inhibition (HepG2, 0.07 µM) was 72% and 65%.

With “RNA1{[moe](A)[sp].[moe](A)[sp].[moe](G)[sp].d(T)[sp].d(C)[sp].d(C)[sp].d(A)[sp].d(C)[sp].d(C)[sp].d(A)[sp].d(C)[sp].d(G)[sp].d(A)[sp].[cEt](G)[sp].[cEt](T)[sp].[cEt](C)}$$$$V2.0”, the target mRNA inhibition (HepG2, 0.07 µM) was 19% and 25%.

Take “RNA1{[moe](G)[sp].[moe](G)[sp].[moe](C)[sp].[moe](A)[sp].d(T)[sp].d(A)[sp].d(G)[sp].d(C)[sp].d(A)[sp].d(G)[sp].d(C)[sp].d(A)[sp].d(G)[sp].[moe](G)[sp].[moe](A)[sp].[moe](T)[sp].[moe](G)}$$$$V2.0”: the target mRNA inhibition (HepG2, 0.07 µM) was 57% and 53%.

Consider “RNA1{[moe](T)[sp].[moe](T)[sp].d(T)[sp].d(A)[sp].d(T)[sp].d(G)[sp].d(C)[sp].d(C)[sp].d(T)[sp].d(A)[sp].d(C)[sp].[moe](A)[sp].[moe](G)[sp].[moe](C)[sp].[moe](C)[sp].[moe](T)}$$$$V2.0”, for which, where the note is “HepG2, 0.07 µM”, the target mRNA inhibition is 46% and 47%.

As for “RNA1{[moe](A)[sp].[moe](A)[sp].[moe](T)[sp].[moe](T)[sp].[moe](T)[sp].[moe](A)[sp].d(T)[sp].d(G)[sp].d(C)[sp].d(C)[sp].d(T)[sp].d(A)[sp].d(C)[sp].d(A)[sp].d(G)[sp].[moe](C)[sp].[moe](C)}$$$$V2.0”, the target mRNA inhibition (HepG2, 0.07 µM) was 53% and 48%.

On to “RNA1{[moe](C)[sp].[cEt](T)[sp].[cEt](A)[sp].d(G)[sp].d(T)[sp].d(A)[sp].d(A)[sp].d(A)[sp].d(C)[sp].d(T)[sp].d(G)[sp].d(A)[sp].d(G)[sp].[cEt](C)[sp].[cEt](C)[sp].[moe](A)}$$$$V2.0”, for which the target mRNA inhibition by setting is: (HepG2, 0.0092593 µM) 33%; (HepG2, 0.0277778 µM) 49%; (HepG2, 0.07 µM) 76% and 71%; (HepG2, 0.0833333 µM) 71%; (HepG2, 0.25 µM) 88%.

As for “RNA1{[moe](T)[sp].[cEt](C)[sp].d(C)[sp].d(A)[sp].d(C)[sp].d(C)[sp].d(A)[sp].d(C)[sp].d(G)[sp].d(A)[sp].d(G)[sp].d(T)[sp].[cEt](C)[sp].[moe](T)[sp].[cEt](A)[sp].[moe](G)}$$$$V2.0”, the target mRNA inhibition (HepG2, 0.07 µM) is 71% and 53%.

Regarding “RNA1{[moe](G)[sp].[cEt](T)[sp].d(C)[sp].d(C)[sp].d(A)[sp].d(C)[sp].d(C)[sp].d(A)[sp].d(C)[sp].d(G)[sp].d(A)[sp].d(G)[sp].[cEt](T)[sp].[moe](C)[sp].[cEt](T)[sp].[moe](A)}$$$$V2.0”, the target mRNA inhibition (HepG2, 0.07 µM) was 51% and 38%.
